Experimental data published in ChEMBL document CHEMBL5512654, “Discovery of novel Thymol-TPP antibiotics that eradicate MRSA persisters” (Eur J Med Chem, 2024).
Converted amounts (≈) assume the structure as drawn.

Key:
Staphylococcus aureus [1] = assay: Antibacterial activity against Staphylococcus aureus ATCC 43300 assessed as inhibition of bacterial growth measured after 18 hrs by microplate reader; assay type: functional; details: read-out: MIC100
Staphylococcus aureus [2] = assay: Antibacterial activity against methicillin-resistant Staphylococcus aureus USA 3390 assessed as inhibition of bacterial growth measured after 18 hrs by microplate reader; assay type: functional; details: read-out: MIC100
Staphylococcus aureus [3] = assay: Antibacterial activity against methicillin-resistant Staphylococcus aureus USA 300 assessed as inhibition of bacterial growth measured after 18 hrs by microplate reader; assay type: functional; details: read-out: MIC100
Acinetobacter baumannii [4] = assay: Antibacterial activity against Acinetobacter baumannii ATCC 1318 assessed as inhibition of bacterial growth measured after 18 hrs by microplate reader; assay type: functional; details: read-out: MIC100
Acinetobacter baumannii [5] = assay: Antibacterial activity against Acinetobacter baumannii ATCC 19606 assessed as inhibition of bacterial growth measured after 18 hrs by microplate reader; assay type: functional; details: read-out: MIC100
Klebsiella pneumoniae [6] = assay: Antibacterial activity against Klebsiella pneumonia ATCC 700603 assessed as inhibition of bacterial growth measured after 18 hrs by microplate reader; assay type: functional; details: read-out: MIC100
Escherichia coli [7] = assay: Antibacterial activity against Escherichia coli 53328 assessed as inhibition of bacterial growth measured after 18 hrs by microplate reader; assay type: functional; details: read-out: MIC100
Pseudomonas aeruginosa [8] = assay: Antibacterial activity against Pseudomonas aeruginosa ATCC 27853 assessed as inhibition of bacterial growth measured after 18 hrs by microplate reader; assay type: functional; details: read-out: MIC100
Klebsiella pneumoniae [9] = assay: Antibacterial activity against Klebsiella pneumonia 3026 assessed as inhibition of bacterial growth measured after 18 hrs by microplate reader; assay type: functional; details: read-out: MIC100
Escherichia coli [10] = assay: Antibacterial activity against Escherichia coli ATCC 25922 assessed as inhibition of bacterial growth measured after 18 hrs by microplate reader; assay type: functional; details: read-out: MIC100
[11] = Cytotoxicity against human L02 cells incubated for 72 hrs by MTT dye reduction assay; assay type: toxicity, cell-based
Pseudomonas aeruginosa [12] = assay: Antibacterial activity against Pseudomonas aeruginosa 535 assessed as inhibition of bacterial growth measured after 18 hrs by microplate reader; assay type: functional; details: read-out: MIC100

| MIC (Acinetobacter baumannii [4]) [µg/mL] | MIC (Acinetobacter baumannii [5]) [µg/mL] | MIC (Klebsiella pneumoniae [6]) [µg/mL] | MIC (Escherichia coli [7]) [µg/mL] | MIC (Pseudomonas aeruginosa [8]) [µg/mL] | MIC (Klebsiella pneumoniae [9]) [µg/mL] | MIC (Escherichia coli [10]) [µg/mL] | MIC (Pseudomonas aeruginosa [12]) [µg/mL] | Structure (SMILES) | MIC (Staphylococcus aureus [1]) [µg/mL] | MIC (Staphylococcus aureus [2]) [µg/mL] | MIC (Staphylococcus aureus [3]) [µg/mL] | IC50 at 72 h [11] [µg/mL] |
| --- | --- | --- | --- | --- | --- | --- | --- | --- | --- | --- | --- | --- |
|  |  |  |  |  |  |  |  | Cc1cccc(-c2cc(C(C)C)c(O)cc2C)c1 | 16 (≈ 66.6 µM) | 8 (≈ 33.3 µM) | 8 (≈ 33.3 µM) |  |
| > 64 | > 64 | > 64 | 32 | 64 | > 64 | > 64 | > 64 | Cc1cc(OC(=O)CCCCCCCCCC[P+](c2ccccc2)(c2ccccc2)c2ccccc2)c(C(C)C)cc1-c1ccccc1.[Br-] |  |  |  | 3.13 |
|  |  |  |  |  |  |  |  | Cc1cc(O)c(C(C)C)cc1Cl [CHLOROTHYMOL] | 64 (≈ 347 µM) | 64 (≈ 347 µM) | 64 (≈ 347 µM) |  |
|  |  |  |  |  |  |  |  | Cc1cc(O)c(C(C)C)cc1-c1ccc(Cl)cc1 | 8 (≈ 30.7 µM) | 8 (≈ 30.7 µM) | 4 (≈ 15.3 µM) |  |
|  |  |  |  |  |  |  |  | COc1ccc(-c2cc(C(C)C)c(O)cc2C)cc1 | 16 (≈ 62.4 µM) | 16 (≈ 62.4 µM) | 32 (≈ 125 µM) |  |
|  |  |  |  |  |  |  |  | Cc1cc(O)c(C(C)C)cc1-c1ccccc1C(F)(F)F | 8 (≈ 27.2 µM) | 16 (≈ 54.4 µM) | 8 (≈ 27.2 µM) |  |
| 8 | 16 | 32 | 8 | > 64 | 32 | 16 | > 64 | Cc1cc(OC(=O)CCCC[P+](c2ccccc2)(c2ccccc2)c2ccccc2)c(C(C)C)cc1-c1ccccc1.[Br-] |  |  |  | 8.31 |
| 16 | 32 | 32 | > 64 | > 64 | > 64 | 4 | > 64 | Cc1cc(OC(=O)CC[P+](c2ccccc2)(c2ccccc2)c2ccccc2)c(C(C)C)cc1-c1ccccc1.[Br-] |  |  |  | 7.96 |
|  |  |  |  |  |  |  |  | Cc1cc(O)c(C(C)C)cc1-c1cccc(C#N)c1 | 32 (≈ 127 µM) | 8 (≈ 31.8 µM) | 16 (≈ 63.7 µM) |  |
| 8 | 16 | 64 | 16 | 64 | 64 | 4 | 32 | Cc1cc(OC(=O)CCCCCCCC[P+](c2ccccc2)(c2ccccc2)c2ccccc2)c(C(C)C)cc1-c1ccccc1.[Br-] |  |  |  | 13.2 |
|  |  |  |  |  |  |  |  | Cc1cc(O)c(C(C)C)cc1-c1cccc(O)c1 | 32 (≈ 132 µM) | 32 (≈ 132 µM) | 32 (≈ 132 µM) |  |
|  |  |  |  |  |  |  |  | COc1ccccc1-c1cc(C(C)C)c(O)cc1C | > 64 | > 64 | > 64 |  |
|  |  |  |  |  |  |  |  | Cc1cc(O)c(C(C)C)cc1-c1ccccc1 | 16 (≈ 70.7 µM) | 16 (≈ 70.7 µM) | 8 (≈ 35.3 µM) | 13.5 (≈ 59.5 µM) |
|  |  |  |  |  |  |  |  | Cc1cc(O)c(C(C)C)cc1-c1ccccc1C(=O)O | 16 (≈ 59.2 µM) | 8 (≈ 29.6 µM) | 8 (≈ 29.6 µM) |  |
|  |  |  |  |  |  |  |  | Cc1cc(O)c(C(C)C)cc1Br | 64 (≈ 279 µM) | 32 (≈ 140 µM) | 64 (≈ 279 µM) |  |
|  |  |  |  |  |  |  |  | Cc1cc(O)c(C(C)C)cc1-c1ccc(C#N)cc1 | 16 (≈ 63.7 µM) | 32 (≈ 127 µM) | 16 (≈ 63.7 µM) |  |
|  |  |  |  |  |  |  |  | Cc1cc(O)c(C(C)C)cc1-c1ccc(O)cc1 | > 64 | > 64 | > 64 |  |
|  |  |  |  |  |  |  |  | Cc1cc(O)c(C(C)C)cc1-c1cccc(Cl)c1 | 4 (≈ 15.3 µM) | 8 (≈ 30.7 µM) | 8 (≈ 30.7 µM) |  |
|  |  |  |  |  |  |  |  | Cc1ccc(C(C)C)c(O)c1 [THYMOL] | 128 (≈ 852 µM) | 256 (≈ 1700 µM) | 128 (≈ 852 µM) |  |
